Legend:
[1] = Dynamic vapor adsorption (DVS), hygroscopicity; format: physicochemical; settings: 0-90% RH, 25° C.
Protocol: Dynamic vapor adsorption: the hygroscopicity was evaluated with a dynamic vapor adsorption (DVS) instrument (IGAsorp, Hiden Isochema, Warrington, England) at room temperature. The water adsorption/desorption was studied as a function of relative humidity (RH) in the range of 0-90% at 25° C. The relative humidity in the chamber was made to increase by 10% RH, and the humidity was retained until the humidity state of the atmosphere and the weight variation of solid achieved equilibrium. The equilibration test was continued until the test was passed or failed 5 or 10 hours later. At this time point, RH increased by 10%, and the absorption process was repeated until the RH achieved to 90% RH and the humidity state achieved equilibrium. During the test, the moisture sorption was being monitored. For the desorption, the relative humidity was decreased in a similar manner to measure a perfect adsorption/desorption cycle. The cycle was repeated as appropriate. All the experiments were operated in dm/dt mode (weight variation over time) to determine each equilibrating endpoint. About 5-10 mg of the solid was used. The date analyses were carried out with Hisorp v4.02 (Hiden Isochema, Warrington, England).

[2] = Thermogravimetric analysis (TGA); format: physicochemical; settings: until melting temperature
Protocol: Thermogravimetric analysis: the thermogravimetric analysis (TGA) was carried out with a TGA instrument (TGA Q500, TA Instruments, New Castle, Del., USA). For each trial, about 1-10 mg of the solid sample was put in an open aluminium pot, and heated at a rate of 5-10° C./min under a nitrogen purge of 60 mL/min. The data analysis was carried out with Universal Analysis 2000 Version 4.1D (TA Instruments, New Castle, Del., USA).

[3] = Differential scanning calorimetry (DSC); format: physicochemical
Protocol: Differential scanning calorimetry: the thermal characteristic was evaluated with a differential scanning calorimetry (DSC) instrument (DSCQ1000, TA Instruments, New Castle, Del., USA). For each trial, about 1-10 mg of the solid sample was put in a standard aluminium pot aerated with a pinhole, and heated at a rate of 5-10° C./min under a nitrogen purge of 50 mL/min. The data analysis was carried out with Universal Analysis 2000 Version 4.1D (TA Instruments, New Castle, Del., USA).

[4] = Shaking suspensions of crystalline forms in solvents (form conversion); format: physicochemical; settings: shaking forms I-III in several kinds of solvents for 9-11 days
Protocol: Crystalline Example 13 of form III can be prepared by shaking a suspension of Example 13 in an organic solvent (e.g. ethanol, chloroform, acetonitrile, tetrahydrofuran, ethyl acetate, acetone, and tetrahydrofuran/heptane mixture (1:1)) at about 50° C. for 9-11 days. Or, it can be prepared by shaking a suspension of Example 13 in an organic solvent (e.g. acetonitrile, ethyl acetate, acetone, acetone/water mixture (1:1), and tetrahydrofuran/heptane mixture (1:1)) at about 25° C. for 9-11 days. Or, it can be prepared by shaking a suspension of a mixture of forms I and II of Example 13 in an organic solvent (e.g. ethanol, 2-propanol, chloroform, acetonitrile, tetrahydrofuran, ethyl acetate, acetone, and tetrahydrofuran/heptane mixture (1:1)) at about 50° C. for 9-11 days. Or, it can be prepared by shaking a suspension of a mixture of forms I and II of Example 13 in an organic solvent (e.g. 2-propanol, chloroform, acetonitrile, tetrahydrofuran, ethyl acetate, acetone, methanol/water mixture (1:1), 2-propanol/water mixture (1:1), acetone/water mixture (1:1), and tetrahydrofuran/heptane mixture (1:1)) at about 25° C. for 9-11 days. Or, it can be prepared by heating a solution of Example 13 in tert-butyl methyl ether at about 80° C. for about one hour, and leaving the solution to stand at room temperature for a day. […]

[5] = tested on: oxaliplatin chemotherapy-induced peripheral neuropathy model; assay: Anti-allodynia effect in chemotherapy-induced peripheral neuropathy model (acetone test); format: in vivo, rat; settings: Example 13 100 mg/kg oral once a day 17 times; duloxetine 30 mg/kg oral single
Source text: As one of chemotherapy-induced peripheral neuropathy, sensory disturbance due to neuropathy caused by a platinating agent that is an anticancer agent such as cisplatin and oxaliplatin is known, and the symptom is difficult to be recovered even after the medication is discontinued. The therapeutic effect for sensory disturbance caused by repetitive administration of oxaliplatin was studied in the present test.
To male Crl: CD (SD) rats (7 weeks old) (CHARLES RIVER LABORATORIES JAPAN, INC.), oxaliplatin (5 mg/kg) was intraperitoneally administered for the two consecutive days in a week, totally 6 times, to prepare chemotherapy-induced peripheral neuropathy models. The compound of Example 13 (100 mg/kg) was repeatedly orally administered once a day, totally 17 times. […] In the acetone test, 0.1 mL of acetone was sprayed to the foot sole of the rat hind paw, and the reaction was evaluated according a scoring (Cold Score). When there was no reaction for 20 seconds after spraying acetone, Score 0 was recorded and the observation was stopped. When there was any reaction for the 20 seconds, the observation was continued until 40 seconds after spraying, and the score was recorded according to the evaluation scale. The acetone spray was done twice each for right and left hind paws, and the total score was calculated. […]

[6] = tested on: levodopa-induced dyskinesia in 6-OHDA unilateral lesion model; assay: Effect for inhibiting levodopa-induced dyskinesia; format: in vivo, rat; settings: Examples 30 or 100 mg/kg, rasagiline 0.2 or 0.6 mg/kg, daily for two weeks
Source text: A unilateral lesion model of nigrostriatal dopamine neuron induced with 6-hydroxydopamine (6-OHDA) is broadly used for evaluating the drug efficacy for treating Parkinson's disease, as mentioned in Test 2. In addition, it is known that dyskinesia is developed when the present model receives repetitive administration of levodopa, which is similar to the phenomenon that patients of Parkinson's disease who have received long-term administration of levodopa develop dyskinesia. With the present model, the effect of the present compound on the dyskinesia induced by repetitive administration of levodopa was evaluated. As shown in Test 2, a unilateral lesion model of nigrostriatal dopamine neuron was prepared. One day before starting the repetitive administration of levodopa, levodopa methyl ester hydrochloride (5.86 mg/kg) containing benserazide hydrochloride ([…]) (whose ratio was 4:1 in terms of free form) was intraperitoneally administered to the model, and the rotational behavior of the model was observed from 20 minutes to 140 minutes after the administration. The models were classified considering three factors of the total rotation number (20-140 minutes after the administration), the later term of the rotation (120-140 minutes after the administration), and the rotational duration, so that the dispersion of each group could be equal. Two days after the classification, the repetitive administration of levodopa methyl ester hydrochloride (6 mg/kg) and benserazide hydrochloride (12 mg/kg) once a day for two weeks was started. […] The evaluation of dyskinesia was done after one week and two weeks of the repetitive administration. […]

[7] = tested on: reserpine-induced Parkinson's disease model mouse; assay: Potentiating effect of levodopa-induced hyperactivity in reserpine-induced Parkinson's disease model mouse; format: in vivo; settings: Examples 12.5 or 25 mg/kg oral; rasagiline 3 or 10 mg/kg; with levodopa 200 mg/kg i.p.
Protocol: Dopamine-depleted mice due to reserpine treatment are model mice of akinesia symptoms in Parkinson's disease, said symptoms are relieved with levodopa (L-DOPA). The effect of the present compounds for potentiating the levodopa's effect was tested.
In the present test, male Crl: CD1 (ICR) mice (CHARLES RIVER LABORATORIES JAPAN, INC.) were used. 20-24 hours before starting the movement measurement, reserpine (3 mg/kg) was intraperitoneally administered to the mouse. One hour before starting the movement measurement, the present compound (12-.5 mg/kg or 25 mg/kg of. Examples 1, 2, 3, 4, and 5) was orally administered to the mouse. Shortly before starting the movement measurement, levodopa (200 mg/kg) with benserazide whose amount was ¼ of levodopa in free form was intraperitoneally administered to the mouse. The movement measurement was carried out for 90 minutes, and each total movement was compared.

[8] = tested on: unilateral lesion model of nigrostriatal dopamine neuron induced with 6-OHDA; assay: Extending duration of levodopa-induced rotational behavior in 6-OHDA unilateral lesion model; format: in vivo, rat; settings: Examples 10 or 30 mg/kg oral; rasagiline 0.6 mg/kg; with levodopa 5 mg/kg i.p.

## C[C@H](c1noc2ccccc12)S(N)(=O)=O [Example 13 form I, (1R)-1-(1,2-benzoxazol-3-yl)ethane-1-sulfonamide]
[1]
  weight variation in DVS: ≤ 1%
[2]
  weight reduction in TGA: no weight reduction
[3]
  crystalline stability (DSC): high

## C[C@H](c1noc2ccccc12)S(N)(=O)=O [Example 13 form III, (1R)-1-(1,2-benzoxazol-3-yl)ethane-1-sulfonamide]
[4]
  relative stability of crystalline forms: most stable form

## CNCC[C@H](Oc1cccc2ccccc12)c1cccs1 [duloxetine, reference compound]
[5]
  Cold Score in acetone test: significantly lower Cold Score

## C#CCN[C@@H]1CCc2ccccc21 [rasagiline, reference compound]
[6]
  dyskinesia induced by repetitive administration of levodopa (AIMS score): significantly got worse
[7]
  levodopa-induced hyperactivity (total movement, 90 minutes): a tendency to increase the movement, but the increase had no statistically-significant difference
[8]
  rotational number in the late phase (100-120 minutes): significantly increased the rotational number in the late phase

Source: patent US11535599B2, “Benzisoxazole derivative” (Sumitomo Pharma Co., Ltd., priority 2020, dated 2022)
